These are literature values, as cited in US11111250B2 (SHILPA MEDICARE LIMITED, priority 2017, dated 2021).

For data set [1] the following is noted: aqueous media, pH dependence.
For data set [2] the following is noted: long term and accelerated stability studies, stored in the proposed packaging.

For the substance Ribociclib mono succinate, the solubility entry in data set [1] is “soluble in acidic aqueous media, becoming less soluble as pH increases”.
As for “Ribociclib mono succinate [Ribociclib mono succinate form A]”, the polymorphic stability entry in data set [2] was “stable and not to convert into other polymorphic forms”.
